Test results from patent publication US8450305B2, “Macrocyclic compounds useful as inhibitors of kinases and HSP90” (Universite de Strasbourg, priority 2006, dated 2013).
pEC50, pIC50: −log10 of the molar value. Like-named read-outs stand apart in the source and are kept apart here.

Experiments:
[1] = rcm bond, Grubbs II, toluene, 2.0 mM, 80.0 °C
HSP90 = HSP90 (Homo sapiens, UniProt P07900); test: HSP90 affinity, competition assay with geldanamycin; type: binding
SK-BR-3 tumor cells = test: Cytotoxicity, MTS assay, SK-BR-3; type: cell-based; settings: Homo sapiens, 72 hours
Procedure: (§1) Tumor cells were grown as adherent monolayers at 37° C. in a humidified atmosphere (5% CO2, 95% air). The culture medium was RPMI 1640 containing 2 mM L-glutamine (Ref BE12-702F, Cambrex, Verviers, Belgium) and supplemented with 10% fetal bovine serum (Ref DE14-801E, Cambrex). For experimental use, the adherent tumour cells were detached from the culture flask by a 5-minute treatment with trypsin-versene (Ref O2-007E, Cambrex), diluted in Hanks' medium without calcium or magnesium (Ref BE10-543F, Cambrex) and neutralized by addition of complete culture medium. Before use, cells were counted in a hemocytometer and their viability were assessed by 0.25% trypan blue exclusion. Mycoplasma detection was performed using the MycoAlert® Mycoplasma Detection Kit (Ref LT07-318, Cambrex) in accordance with the manufacturer instructions. The MycoAlert®Assay is a selective biochemical test that exploits the activity of mycoplasmal enzymes. The viable mycoplasma are lysed and the enzymes react with the MycoAlert® substrate catalyzing the conversion of ADP to ATP. By measuring the level of ATP in a sample both before and after the addition of the MycoAlert® substrate a ratio can be obtained which is indicative of the presence or absence of mycoplasma. The mycoplasma test was assayed in duplicate from the culture supernatants of the cell lines and compared to negative and positive controls (MycoAlert® Assay Control Set, Ref LT07-518, Cambrex) (Internal Standard Operating Procedure No TEC-007/002). Both HCC1954 and SK-BR-3 tumour cells (5,000 cells per well) were plated in 96-well flat-bottom microtitration plates (Ref 167008, Nunc, Dutscher, Brumath, France) and incubated at 37° C. for 24 hours before treatment in 190 μl of drug-free culture medium supplemented with 10% FBS. Both HCC1954 and SK-BR-3 tumour cell lines were incubated for 72 hours with […], in ¼ dilution steps, of the test substances (ranging from […]) to be tested as well as paclitaxel (ranging from 10^−7 to 10^−12 M). The cells (190 μl) will be incubated in a 200 μl final volume of culture medium supplemented with 10% FBS containing test substances at 37° C. under 5% CO2. One experiment is performed, each concentration being issued from quadruplicate. Control cells are treated with corresponding vehicle alone. At the end of treatments, the cytotoxic activity is evaluated by a MTS assay. […] Like MTT, MTS is bioreduced by cells into a formazan product that is directly soluble in culture medium without processing, unlike MTT.
(§2) At the end of the cells treatment, 40 μl of a 0.22 μm filtered freshly combined solution of MTS (20 ml at 2 mg/ml, Ref G1111A, Promega, Charbonnières, France) and PMS (1 ml at 0.92 mg/ml, Ref P9625, Sigma) in Dulbecco's Phosphate Buffered Saline (DPBS, Ref 17-513F, Cambrex), were added in each well. Culture plates were incubated for 2 h at 37° C. Absorbency (OD) will be measured at 490 nm in each well using VICTOR^3™ 1420 multilabeled counter (Wallac, PerkinElmer, Courtaboeuf, France).

HCC1954 tumor cells = test: Cytotoxicity, MTS assay, HCC1954; type: cell-based; settings: Homo sapiens, 72 hours
Procedure: as §1, §2

SRC = target: T1, SRC (Homo sapiens, UniProt P12931); test: Radiometric protein kinase assay, SRC; type: biochemical; settings: 1 μM ATP; read-out: Inhibitory activity (IC50:μM) SRC
T1 construct: host or cells: Sf9 insect cells (baculovirus)
From the text: (§3) All protein kinases were expressed in Sf9 insect cells as human recombinant GST-fusion proteins or His-tagged proteins by means of the baculovirus expression system. Kinases were purified by affinity chromatography using either GSH-agarose (Sigma) or Ni-NTH-agarose (Qiagen). The purity of each kinase was checked by SDS-PAGE/silver staining and the identity of each kinase was verified by western blot analysis with kinase specific antibodies or by mass spectroscopy.
(§4) A radiometric protein kinase assay (^33PanQinase® Activity Assay) was used for measuring the kinase activity of the 24 protein kinases. All kinase assays were performed in 96-well FlashPlates™ from Perkin Elmer (Boston, Mass., USA) in a 50 μl reaction volume. The reaction cocktail was pipetted in 4 steps in the following order: • 20 μl of assay buffer • 5 μl of ATP solution (in H2O) • 5 μl of test compound (in 10% DMSO) • 10 μl of substrate/10 […] of enzyme solution (premixed)
(§5) The assay for all enzymes contained 60 mM HEPES-NaOH, pH 7.5, 3 mM MgCl2, 3 mM MnCl2, 3 μM Na-orthovanadate, 1.2 mM DTT, 50 μg/ml PEG20000, 1 μM [γ-^33P]-ATP (approx. 5×10^05 cpm per well).
(§6) For the 24 kinase assays, the following amounts of enzyme and substrate were used per well:
(§7) The reaction cocktails were incubated at 30° C. for 80 minutes. The reaction was stopped with 50 μl of 2% (v/v) H3PO4, plates were aspirated and washed two times with 200 μl of 0.9% (w/v) NaCl or 200 μl H2O. Incorporation of ^33Pi was determined with a microplate scintillation counter (Microbeta Trilux, Wallac).
(§8) The median value of the counts in column 1 (n=8) of each assay plate was defined as “low control”. This value reflects unspecific binding of radioactivity to the plate in the absence of a protein kinase but in the presence of the substrate. The median value of the counts in column 7 of each assay plate (n=8) was taken as the “high control”, i.e. full activity in the absence of any inhibitor. The difference between high and low control was taken as 100% activity.
(§9) As part of the data evaluation the low control value from a particular plate was subtracted from the high control value as well as from all 80 “compound values” of the corresponding plate. The residual activity (in %) for each well of a particular plate was calculated by using the following formula: Res. Activity (%)=100×[(cpm of compound−low control)/(high control−low control)]
(§10) The residual activities for each concentration and the compound IC50 values were calculated using Quattro Workflow V2.1.0.0 (Quattro Research GmbH, Munich, Germany; www.quattro-research.com). The model used was “Sigmoidal response (variable slope)” with parameters “top” fixed at 100% and “bottom” at 0%.

IGF1-R = target: T2, IGF1-R (Homo sapiens, UniProt P08069); test: Radiometric protein kinase assay, IGF1-R; type: biochemical; settings: 1 μM ATP; read-out: Inhibitory activity (IC50:μM) IGF1-R
T2 construct: host or cells: Sf9 insect cells (baculovirus)
From the text: as §3, §4, §5, §6, §7, §8, §9, §10

EGF-R = target: T3, EGF-R (Homo sapiens, UniProt P00533); test: Radiometric protein kinase assay, EGF-R; type: biochemical; settings: 1 μM ATP; read-out: Inhibitory activity (IC50:μM) EGF-R
T3 construct: host or cells: Sf9 insect cells (baculovirus)
From the text: as §3, §4, §5, §6, §7, §8, §9, §10

panel of 24 kinase = test: Radiometric protein kinase assay (33PanQinase), panel of 24 kinases; type: biochemical, human; settings: at 10 μM
From the text: as §3
A radiometric protein kinase assay (^33PanQinase® Activity Assay) was used for measuring the kinase activity of the 24 protein kinases.
as §5, §7, §8, §9

T2 sequence (P08069 31-1367): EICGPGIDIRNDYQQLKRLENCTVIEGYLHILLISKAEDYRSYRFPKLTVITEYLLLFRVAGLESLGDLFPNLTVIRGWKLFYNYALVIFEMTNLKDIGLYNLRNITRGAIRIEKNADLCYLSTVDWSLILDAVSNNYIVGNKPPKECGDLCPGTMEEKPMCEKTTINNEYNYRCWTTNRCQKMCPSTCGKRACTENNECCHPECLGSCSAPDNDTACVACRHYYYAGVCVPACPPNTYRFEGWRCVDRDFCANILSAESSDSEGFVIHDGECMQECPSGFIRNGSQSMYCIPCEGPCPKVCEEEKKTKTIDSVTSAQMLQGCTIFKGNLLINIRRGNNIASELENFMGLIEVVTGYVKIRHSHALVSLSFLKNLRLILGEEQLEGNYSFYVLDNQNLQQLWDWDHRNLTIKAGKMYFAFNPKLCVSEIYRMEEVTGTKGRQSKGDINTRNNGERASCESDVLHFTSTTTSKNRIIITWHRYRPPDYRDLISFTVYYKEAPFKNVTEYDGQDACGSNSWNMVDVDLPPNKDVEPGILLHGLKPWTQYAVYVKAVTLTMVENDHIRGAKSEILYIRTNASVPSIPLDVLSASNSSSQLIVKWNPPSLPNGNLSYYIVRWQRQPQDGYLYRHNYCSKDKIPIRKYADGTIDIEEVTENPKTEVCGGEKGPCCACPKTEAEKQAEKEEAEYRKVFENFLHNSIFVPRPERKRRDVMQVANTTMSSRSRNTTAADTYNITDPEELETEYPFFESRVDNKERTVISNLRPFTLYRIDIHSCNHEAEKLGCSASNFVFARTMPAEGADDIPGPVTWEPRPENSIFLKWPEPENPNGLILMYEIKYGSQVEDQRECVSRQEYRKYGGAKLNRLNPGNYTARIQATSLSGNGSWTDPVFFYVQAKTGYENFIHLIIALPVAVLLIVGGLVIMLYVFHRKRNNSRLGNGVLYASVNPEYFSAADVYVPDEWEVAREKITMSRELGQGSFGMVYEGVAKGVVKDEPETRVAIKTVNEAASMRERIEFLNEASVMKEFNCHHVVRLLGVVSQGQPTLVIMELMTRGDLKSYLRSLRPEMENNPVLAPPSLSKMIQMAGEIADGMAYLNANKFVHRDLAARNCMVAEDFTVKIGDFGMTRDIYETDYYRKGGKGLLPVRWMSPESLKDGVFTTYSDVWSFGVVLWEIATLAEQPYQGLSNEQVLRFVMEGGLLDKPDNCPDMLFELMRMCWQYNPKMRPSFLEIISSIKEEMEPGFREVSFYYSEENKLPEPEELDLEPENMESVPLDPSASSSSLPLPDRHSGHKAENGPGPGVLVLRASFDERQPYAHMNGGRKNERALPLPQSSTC
T1 sequence (P12931 whole entry): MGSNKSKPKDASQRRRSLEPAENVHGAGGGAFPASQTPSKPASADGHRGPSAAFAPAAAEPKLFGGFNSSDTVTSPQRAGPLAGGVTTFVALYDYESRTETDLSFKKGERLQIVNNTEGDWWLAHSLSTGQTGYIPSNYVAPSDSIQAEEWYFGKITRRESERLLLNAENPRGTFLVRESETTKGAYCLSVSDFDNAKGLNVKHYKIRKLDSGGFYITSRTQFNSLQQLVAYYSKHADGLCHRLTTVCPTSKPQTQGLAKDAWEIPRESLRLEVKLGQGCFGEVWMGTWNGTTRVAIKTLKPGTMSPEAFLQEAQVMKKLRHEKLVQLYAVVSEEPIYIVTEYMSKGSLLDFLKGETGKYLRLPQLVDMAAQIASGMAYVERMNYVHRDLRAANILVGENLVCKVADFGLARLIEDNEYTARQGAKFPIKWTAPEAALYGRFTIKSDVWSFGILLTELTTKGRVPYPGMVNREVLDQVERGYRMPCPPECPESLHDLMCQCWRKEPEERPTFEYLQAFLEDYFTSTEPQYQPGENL
T3 sequence (P00533 25-1210): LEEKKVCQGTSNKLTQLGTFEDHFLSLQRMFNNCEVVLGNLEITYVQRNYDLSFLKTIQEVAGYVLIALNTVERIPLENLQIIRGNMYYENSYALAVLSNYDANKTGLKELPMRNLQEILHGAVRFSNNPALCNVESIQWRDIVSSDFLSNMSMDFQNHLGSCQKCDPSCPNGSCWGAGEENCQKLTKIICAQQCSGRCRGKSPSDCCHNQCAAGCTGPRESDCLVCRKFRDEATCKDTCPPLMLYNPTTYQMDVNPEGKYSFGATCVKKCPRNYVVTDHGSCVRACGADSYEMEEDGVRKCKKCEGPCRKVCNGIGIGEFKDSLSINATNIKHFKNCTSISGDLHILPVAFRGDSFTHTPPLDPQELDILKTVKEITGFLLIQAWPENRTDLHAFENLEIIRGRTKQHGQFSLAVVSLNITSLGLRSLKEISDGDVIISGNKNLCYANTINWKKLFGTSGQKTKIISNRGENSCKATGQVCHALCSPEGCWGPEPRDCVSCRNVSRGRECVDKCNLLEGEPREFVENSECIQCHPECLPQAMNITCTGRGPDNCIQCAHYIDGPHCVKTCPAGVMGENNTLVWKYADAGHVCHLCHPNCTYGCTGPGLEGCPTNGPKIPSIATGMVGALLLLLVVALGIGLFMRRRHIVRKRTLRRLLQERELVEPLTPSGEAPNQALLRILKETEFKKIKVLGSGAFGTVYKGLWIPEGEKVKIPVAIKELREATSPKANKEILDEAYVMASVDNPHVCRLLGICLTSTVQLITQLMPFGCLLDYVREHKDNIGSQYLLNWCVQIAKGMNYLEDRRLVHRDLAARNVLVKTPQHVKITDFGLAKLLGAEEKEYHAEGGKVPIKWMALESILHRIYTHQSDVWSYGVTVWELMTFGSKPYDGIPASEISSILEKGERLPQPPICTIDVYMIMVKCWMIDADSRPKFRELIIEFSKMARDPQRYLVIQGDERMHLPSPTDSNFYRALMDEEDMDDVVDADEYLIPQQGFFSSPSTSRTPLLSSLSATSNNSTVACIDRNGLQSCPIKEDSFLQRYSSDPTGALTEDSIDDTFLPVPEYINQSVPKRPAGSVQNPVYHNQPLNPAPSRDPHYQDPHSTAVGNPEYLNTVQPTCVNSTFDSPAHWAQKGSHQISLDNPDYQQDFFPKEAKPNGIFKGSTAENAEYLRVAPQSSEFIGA

Structure (SMILES): CCOCOc1cc(OCOCC)c2c(c1Cl)CC(=O)C=CCCC=CC[C@@H](C)OC2=O
- ring closure, yield of all isomers ([1]; from C=CCCC=CC(=O)Cc1c(Cl)c(OCOCC)cc(OCOCC)c1C(=O)O[C@H](C)CC=C): 94%

Structure (SMILES): CCOCOc1cc2c(c(OCOCC)c1)C(=O)O[C@H](C)CC=CCCC=CC(=O)C2
- ring closure, yield of all isomers ([1]; from C=CCCC=CC(=O)Cc1cc(OCOCC)cc(OCOCC)c1C(=O)O[C@H](C)CC=C, 2 steps): 40%

Structure (SMILES): C[C@@H]1CC=CCC/C=C/C(=O)Cc2c(Cl)c(OCOCC[Si](C)(C)C)cc(OCOCC[Si](C)(C)C)c2C(=O)O1
- ring closure, yield of all isomers ([1]; from C=CCC/C=C/C(=O)Cc1c(Cl)c(OCOCC[Si](C)(C)C)cc(OCOCC[Si](C)(C)C)c1C(=O)O[C@H](C)CC=C, 12.0 h): 87%

Structure (SMILES): C[C@@H]1CC=CCC/C=C/C(=O)Cc2c(Cl)c(O[Si](C)(C)C(C)(C)C)cc(O[Si](C)(C)C(C)(C)C)c2C(=O)O1
- ring closure, yield of all isomers ([1]; from C=CCC/C=C/C(=O)Cc1c(Cl)c(O[Si](C)(C)C(C)(C)C)cc(O[Si](C)(C)C(C)(C)C)c1C(=O)O[C@H](C)CC=C, 12.0 h): 87%

Structure (SMILES): CCOCOc1cc(OCOCC)c2c(c1Cl)CC(=O)C=CCCC=CCC(C)OC2=O (stereo not shown) [2-112, 1-Chloro-2,4-bis-ethoxymethoxy-7-methyl-7,8,11,12-tetrahydro-16H-6-oxa-benzocyclotetradecene-5,15-dione]
- affinity for / inhibition of HSP90 (in words) (HSP90): no affinity

Structure (SMILES): CCOCOc1cc2c(c(OCOCC)c1)C(=O)OC(C)CC=CCCC=CC(=O)C2 (stereo not shown) [2-120, 2,4-Bis-ethoxymethoxy-7-methyl-7,8,11,12-tetrahydro-16H-6-oxa-benzocyclotetradecene-5,15-dione]
- affinity for / inhibition of HSP90 (in words) (HSP90): no affinity

Structure (SMILES): O=C1OCC/C=C/CC/C=C/C(=NOCc2ccccc2)Cc2c(Cl)c(O)cc(O)c21 [2a-3]
- pEC50 (SK-BR-3 tumor cells): 5.35
- pEC50 (HCC1954 tumor cells): 5.52

Structure (SMILES): O=C(CON=C1/C=C/CC/C=C/CCOC(=O)c2c(O)cc(O)c(Cl)c2C1)NCCO [2a-4]
- pEC50 (SK-BR-3 tumor cells): 5.12
- pEC50 (HCC1954 tumor cells): < 5.00

Structure (SMILES): O=C1OCC/C=C\CC/C=C/C(=NOCC(=O)N2CCCCC2)Cc2c(Cl)c(O)cc(O)c21 [2a-5]
- pEC50 (SK-BR-3 tumor cells): 5.60
- pEC50 (HCC1954 tumor cells): 5.02

Structure (SMILES): O=C1OCC/C=C/CCCC/C(=N/OCC(=O)N2CCCCC2)Cc2c(Cl)c(O)cc(O)c21 [2a-6]
- pEC50 (SK-BR-3 tumor cells): < 5.00
- pEC50 (HCC1954 tumor cells): 5.28

Structure (SMILES): C=CCC/C=C/C(Cc1c(Cl)c(O)cc(O)c1C(=O)OCCC=C)=NOCC(=O)N1CCCCC1 [2a-7]
- pEC50 (SK-BR-3 tumor cells): < 5.00
- pEC50 (HCC1954 tumor cells): < 5.00

Structure (SMILES): CNC(=O)CO/N=C1/C=C/CC/C=C/CCOC(=O)c2c(O)cc(O)c(Cl)c2C1 [2a-8]
- pEC50 (SK-BR-3 tumor cells): < 5.00
- pEC50 (HCC1954 tumor cells): < 5.00

Structure (SMILES): C[C@@H]1C/C=C/CC/C=C/C(=N/OCC(=O)N2CCCCC2)Cc2c(Cl)c(O)cc(O)c2C(=O)O1 [2a-9]
- pEC50 (SK-BR-3 tumor cells): 6.35
- pEC50 (HCC1954 tumor cells): 6.05

Structure (SMILES): COC1CC/C=C/CCOC(=O)c2c(O)cc(O)c(Cl)c2C/C(=N/OCC(=O)N2CCCCC2)C1 (stereo not shown) [2a-10]
- pEC50 (SK-BR-3 tumor cells): < 5.00
- pEC50 (HCC1954 tumor cells): < 5.00

Structure (SMILES): O=C1OCC/C=C/CC/C=C/C(=NOCC(=O)N2CCCCCC2)Cc2c(Cl)c(O)cc(O)c21 [2a-11]
- pEC50 (SK-BR-3 tumor cells): 6.51
- pEC50 (HCC1954 tumor cells): 6.28

Structure (SMILES): C[C@@H]1C/C=C/CC/C=C/C(=O)Cc2c(Cl)c(O)cc(O)c2C(=O)O1 [2a-14]
- pEC50 (SK-BR-3 tumor cells): 5.55
- pEC50 (HCC1954 tumor cells): 5.92

Structure (SMILES): O=C1OCC/C=C/CC/C=C/C(=NOCC(=O)N2CCNCC2)Cc2c(Cl)c(O)cc(O)c21 [2a-15]
- pEC50 (SK-BR-3 tumor cells): < 5.00
- pEC50 (HCC1954 tumor cells): < 5.00

Structure (SMILES): O=C(CON=C1/C=C/CC/C=C/CCOC(=O)c2c(O)cc(O)c(Cl)c2C1)NC1CCCCC1 [2a-16]
- pEC50 (SK-BR-3 tumor cells): 6.26
- pEC50 (HCC1954 tumor cells): 6.35

Structure (SMILES): O=C(CON=C1/C=C/CC/C=C/CCOC(=O)c2c(O)cc(O)c(Cl)c2C1)NCc1ccccc1 [2a-17]
- pEC50 (SK-BR-3 tumor cells): 5.46
- pEC50 (HCC1954 tumor cells): 5.07

Structure (SMILES): O=C1OCC/C=C/CC/C=C/C(=NOCC(=O)N2CCOCC2)Cc2c(Cl)c(O)cc(O)c21 [2a-18]
- pEC50 (SK-BR-3 tumor cells): < 5.00
- pEC50 (HCC1954 tumor cells): < 5.00

Structure (SMILES): CCON=C1/C=C/CC/C=C/CCOC(=O)c2c(O)cc(O)c(Cl)c2C1 [2a-22]
- pEC50 (SK-BR-3 tumor cells): 5.42
- pEC50 (HCC1954 tumor cells): 5.01

Structure (SMILES): COC1CC/C=C/C[C@H](c2ccccc2)OC(=O)c2c(O)cc(O)c(Cl)c2CC(=O)C1 (stereo partly shown) [A2]
- IC50 (SRC): 8 µM

Structure (SMILES): O=C1/C=C/CCC2OC2C[C@H](c2ccccc2)OC(=O)c2c(O)cc(O)c(Cl)c2C1 (stereo partly shown) [A5]
- IC50 (IGF1-R): 11 µM

Structure (SMILES): CCOCOc1cc2c(c(OCOCC)c1)C(=O)O[C@H](c1ccccc1)C/C=C/CC/C=C/C(=O)C2 [A-1]
- IC50 (IGF1-R): 23 µM
- IC50 (SRC): 11 µM
- IC50 (EGF-R): 33 µM

Structure (SMILES): C[C@@H]1C/C=C/CC/C=C/C(=O)Cc2c(Cl)c(O)cc(O)c2C(=O)O1 [pochonin D, reference compound]
- inhibition in a panel of 24 kinase (panel of 24 kinase): no significant activity
- pIC50 (HSP90): 7.10
